From PubChem BioAssay (NCI)
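Step 1: Grow cells in 96-well plates. Step 2: Expose to compound for 48 hours at 5 concentrations. Step 3: Interpolate endpoints linearly; if unreached, use highest concentration. GI50 marks 50% less growth. TGI marks complete inhibition of growth.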

Tests used:
Experiment in all cases: growth of human tumour cells (NCI), 48 h
786-0 renal = tested on: 786-0 renal
A549 NSCLC = tested on: A549 NSCLC
ACHN renal = tested on: ACHN renal
BT-549 breast = tested on: BT-549 breast
CAKI-1 renal = tested on: CAKI-1 renal
COLO 205 colon = tested on: COLO 205 colon
DU-145 prostate = tested on: DU-145 prostate
EKVX NSCLC = tested on: EKVX NSCLC
HCT-116 colon = tested on: HCT-116 colon
HCT-15 colon = tested on: HCT-15 colon
HL-60(TB) leukemia = tested on: HL-60(TB) leukemia
HOP-62 NSCLC = tested on: HOP-62 NSCLC
HOP-92 NSCLC = tested on: HOP-92 NSCLC
HS 578T breast = tested on: HS 578T breast
IGROV1 ovarian = tested on: IGROV1 ovarian
K-562 leukemia = tested on: K-562 leukemia
KM12 colon = tested on: KM12 colon
LOX IMVI melanoma = tested on: LOX IMVI melanoma
M14 melanoma = tested on: M14 melanoma
MDA-MB-231 breast = tested on: MDA-MB-231 breast
MDA-MB-435 = tested on: MDA-MB-435
MOLT-4 leukemia = tested on: MOLT-4 leukemia
NCI-H226 lung = tested on: NCI-H226 lung
NCI-H460 lung = tested on: NCI-H460 lung
NCI-H522 lung = tested on: NCI-H522 lung
NCI/ADR-RES ovarian = tested on: NCI/ADR-RES ovarian
OVCAR-3 ovarian = tested on: OVCAR-3 ovarian
OVCAR-5 ovarian = tested on: OVCAR-5 ovarian
OVCAR-8 ovarian = tested on: OVCAR-8 ovarian
PC-3 prostate = tested on: PC-3 prostate
RPMI-8226 leukemia = tested on: RPMI-8226 leukemia
RXF 393 renal = tested on: RXF 393 renal
SF-268 CNS = tested on: SF-268 CNS
SF-295 CNS = tested on: SF-295 CNS
SF-539 CNS = tested on: SF-539 CNS
SK-MEL-2 melanoma = tested on: SK-MEL-2 melanoma
SK-MEL-5 melanoma = tested on: SK-MEL-5 melanoma
SK-OV-3 ovarian = tested on: SK-OV-3 ovarian
SN12C renal = tested on: SN12C renal
SNB-19 CNS = tested on: SNB-19 CNS
SR leukemia = tested on: SR leukemia
SW-620 colon = tested on: SW-620 colon
T-47D breast = tested on: T-47D breast
TK-10 renal = tested on: TK-10 renal
U251 CNS = tested on: U251 CNS
UACC-257 melanoma = tested on: UACC-257 melanoma
UACC-62 melanoma = tested on: UACC-62 melanoma
UO-31 renal = tested on: UO-31 renal

## N#CC1=C(N)N=C(N2CCOCC2)C(C#N)C12Nc1ccccc1S2 (stereo unspecified)
786-0 renal
  GI50: 29.6 µM
  TGI: 76.2 µM
A549 NSCLC
  GI50: 33.3 µM
  TGI: > 100 µM
ACHN renal
  GI50: 21.8 µM
  TGI: 76 µM
BT-549 breast
  GI50: 23.3 µM
  TGI: 60.6 µM
CAKI-1 renal
  GI50: 12.6 µM
  TGI: 44.4 µM
COLO 205 colon
  GI50: 12.7 µM
  TGI: 52.4 µM
DU-145 prostate
  GI50: 19.2 µM
  TGI: 56.5 µM
EKVX NSCLC
  GI50: 1.7 µM
  TGI: 15.6 µM
HCT-116 colon
  GI50: 35.4 µM
  TGI: > 100 µM
HCT-15 colon
  GI50: 29.1 µM
  TGI: > 100 µM
HL-60(TB) leukemia
  GI50: 51 µM
  TGI: > 100 µM
HOP-62 NSCLC
  GI50: 61.4 µM
  TGI: > 100 µM
HOP-92 NSCLC
  GI50: 41.3 µM
  TGI: > 100 µM
HS 578T breast
  GI50: 1.75 µM
  TGI: 7.17 µM
IGROV1 ovarian
  GI50: 67.3 µM
  TGI: > 100 µM
K-562 leukemia
  GI50: 26.7 µM
  TGI: > 100 µM
KM12 colon
  GI50: 15 µM
  TGI: 33.6 µM
LOX IMVI melanoma
  GI50: 16.5 µM
  TGI: 41.1 µM
M14 melanoma
  GI50: 35 µM
  TGI: 65.4 µM
MDA-MB-231 breast
  GI50: 26.7 µM
  TGI: > 100 µM
MDA-MB-435
  GI50: 22.9 µM
  TGI: 61.1 µM
MOLT-4 leukemia
  GI50: 23.4 µM
  TGI: > 100 µM
NCI-H226 lung
  GI50: 27.8 µM
  TGI: > 100 µM
NCI-H460 lung
  GI50: 16.6 µM
  TGI: 37.1 µM
NCI-H522 lung
  GI50: 17.6 µM
  TGI: 51.5 µM
NCI/ADR-RES ovarian
  GI50: 39.3 µM
  TGI: 75.9 µM
OVCAR-3 ovarian
  GI50: 20.1 µM
  TGI: 58.1 µM
OVCAR-5 ovarian
  GI50: 45.1 µM
  TGI: > 100 µM
OVCAR-8 ovarian
  GI50: 4.23 µM
  TGI: 59.5 µM
PC-3 prostate
  GI50: 20.1 µM
  TGI: > 100 µM
RPMI-8226 leukemia
  GI50: 16 µM
  TGI: 88.5 µM
RXF 393 renal
  GI50: 19 µM
  TGI: > 100 µM
SF-268 CNS
  GI50: 8.05 µM
  TGI: 27.5 µM
SF-295 CNS
  GI50: 26.3 µM
  TGI: 79.1 µM
SF-539 CNS
  GI50: 18.9 µM
  TGI: 35.5 µM
SK-MEL-2 melanoma
  GI50: 35.2 µM
  TGI: 95 µM
SK-MEL-5 melanoma
  GI50: 12.5 µM
  TGI: 28.2 µM
SK-OV-3 ovarian
  GI50: 24.1 µM
  TGI: > 100 µM
SN12C renal
  GI50: 27.5 µM
  TGI: 82.9 µM
SNB-19 CNS
  GI50: 33.8 µM
  TGI: > 100 µM
SR leukemia
  GI50: 9.31 µM
  TGI: > 100 µM
SW-620 colon
  GI50: 23.2 µM
  TGI: > 100 µM
T-47D breast
  GI50: 27.3 µM
  TGI: 88.2 µM
TK-10 renal
  GI50: 14 µM
  TGI: 49.2 µM
U251 CNS
  GI50: 27.8 µM
  TGI: > 100 µM
UACC-257 melanoma
  GI50: 28 µM
  TGI: 89.1 µM
UACC-62 melanoma
  GI50: 18.8 µM
  TGI: 40.9 µM
UO-31 renal
  GI50: 16.4 µM
  TGI: 61.4 µM
